Test results from patent US12539292B2, “BRM targeting compounds and associated methods of use” (Arvinas Operations, Inc., priority 2018, dated 2026).

Target: T1, BRM (Homo sapiens, UniProt P51531)
T1 construct: In-Cell Western Screen of BRM Degradation in SW1573 Cells; endogenous in cells; host or cells: SW1573
Test: In-cell Western screen of BRM degradation in SW1573 cells (Dmax and DC50)
Type: cell-based
Conditions: BRM degradation, SW1573 cells; for DC50: read-out: DC50; for Dmax: read-out: Dmax (% degraded)
Summary of the method: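 Near-infrared imaging on a LI-COR Odyssey (800 and 680 nm channels) quantifies BRM remaining in fixed SW1573 cells. Cells are dosed for 18-20 h at 0.1% final DMSO, and degradation is expressed as Dmax and DC50.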

T1 sequence (P51531 whole entry): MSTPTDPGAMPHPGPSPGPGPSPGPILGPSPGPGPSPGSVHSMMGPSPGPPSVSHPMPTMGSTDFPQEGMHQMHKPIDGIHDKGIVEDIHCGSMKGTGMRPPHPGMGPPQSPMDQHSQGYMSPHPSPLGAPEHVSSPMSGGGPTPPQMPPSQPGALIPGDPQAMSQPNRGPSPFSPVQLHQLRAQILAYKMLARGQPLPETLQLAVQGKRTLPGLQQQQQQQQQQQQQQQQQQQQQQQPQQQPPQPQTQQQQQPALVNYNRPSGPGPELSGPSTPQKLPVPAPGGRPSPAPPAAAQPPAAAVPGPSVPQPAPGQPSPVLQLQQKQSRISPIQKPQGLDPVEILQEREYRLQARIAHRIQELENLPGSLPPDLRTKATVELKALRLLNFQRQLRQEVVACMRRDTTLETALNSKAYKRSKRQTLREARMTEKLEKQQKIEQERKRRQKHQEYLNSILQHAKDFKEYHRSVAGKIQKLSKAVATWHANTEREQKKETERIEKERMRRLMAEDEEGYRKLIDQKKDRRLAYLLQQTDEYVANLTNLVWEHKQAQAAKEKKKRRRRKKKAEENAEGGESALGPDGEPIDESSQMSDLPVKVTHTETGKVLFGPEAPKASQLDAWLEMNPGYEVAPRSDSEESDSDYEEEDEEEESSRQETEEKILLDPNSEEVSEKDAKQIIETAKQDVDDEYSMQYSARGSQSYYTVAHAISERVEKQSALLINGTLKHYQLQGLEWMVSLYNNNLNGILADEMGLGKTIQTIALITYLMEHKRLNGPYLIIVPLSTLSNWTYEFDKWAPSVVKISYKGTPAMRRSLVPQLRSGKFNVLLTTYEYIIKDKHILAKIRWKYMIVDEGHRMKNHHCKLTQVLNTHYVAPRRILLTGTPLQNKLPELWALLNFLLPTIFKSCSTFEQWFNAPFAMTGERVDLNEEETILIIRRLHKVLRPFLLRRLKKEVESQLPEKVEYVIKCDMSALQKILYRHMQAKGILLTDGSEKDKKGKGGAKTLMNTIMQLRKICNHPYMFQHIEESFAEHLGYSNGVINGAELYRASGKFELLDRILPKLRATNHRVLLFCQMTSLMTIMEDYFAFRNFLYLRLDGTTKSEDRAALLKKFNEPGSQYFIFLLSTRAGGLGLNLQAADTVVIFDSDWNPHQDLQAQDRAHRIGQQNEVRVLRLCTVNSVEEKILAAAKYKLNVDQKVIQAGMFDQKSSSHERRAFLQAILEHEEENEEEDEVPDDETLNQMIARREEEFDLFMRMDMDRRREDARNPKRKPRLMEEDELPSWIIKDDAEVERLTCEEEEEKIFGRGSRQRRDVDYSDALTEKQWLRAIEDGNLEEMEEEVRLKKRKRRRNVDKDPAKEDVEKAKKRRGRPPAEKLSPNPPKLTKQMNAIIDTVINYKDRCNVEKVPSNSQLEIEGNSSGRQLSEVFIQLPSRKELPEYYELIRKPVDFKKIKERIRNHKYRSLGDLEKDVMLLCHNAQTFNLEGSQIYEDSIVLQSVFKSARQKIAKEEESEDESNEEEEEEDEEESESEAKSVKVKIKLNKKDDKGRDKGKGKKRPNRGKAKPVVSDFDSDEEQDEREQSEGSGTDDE

SMILES	DC50 [nM]	Dmax [%]
CC[C@@H](NC(=O)[C@@H]1C[C@@H](O)CN1C(=O)[C@@H](c1cc(N2CCC(CN3CCC(O[C@H]4C[C@H](Oc5cc(N6C7CCC6CN(c6cc(-c8ccccc8O)nnc6N)C7)ccn5)C4)CC3)CC2)no1)C(C)C)c1ccc(-c2scnc2C)cc1 [compound 663, (2S,4R)-1-((2R)-2-(3-(4-((4-((1r,3r)-3-((4-(3-(3-amino-6-(2-hydroxyphenyl)pyridazin-4-yl)-3,8-diazabicyclo[3.2.1]octan-8-yl)pyridin-2-yl)oxy)cyclobutoxy)piperidin-1-yl)methyl)piperidin-1-yl)isoxazol-5-yl)-3-methylbutanoyl)-4-hydroxy-N-((R)-1-(4-(4-methylthiazol-5-yl)phenyl)propyl)pyrrolidine-2-carboxamide]	2.5 to 10	50 to 75
Cc1ncsc1-c1ccc([C@H](C)NC(=O)[C@@H]2C[C@@H](O)CN2C(=O)[C@@H](c2cc(N3CCC(CN4CCC(O[C@H]5C[C@@H](CN6CCC(C(C)n7cc(-c8cc(-c9ccccc9O)nnc8N)cn7)CC6)C5)CC4)CC3)no2)C(C)C)cc1 (stereo partly drawn) [compound 664, (2S,4R)-1-((2R)-2-(3-(4-((4-((1s,3s)-3-((4-(1-(4-(3-amino-6-(2-hydroxyphenyl)pyridazin-4-yl)-1H-pyrazol-1-yl)ethyl)piperidin-1-yl)methyl)cyclobutoxy)piperidin-1-yl)methyl)piperidin-1-yl)isoxazol-5-yl)-3-methylbutanoyl)-4-hydroxy-N-((S)-1-(4-(4-methylthiazol-5-yl)phenyl)ethyl)pyrrolidine-2-carboxamide]	< 2.5	> 75
Cc1ncsc1-c1ccc([C@H](C)NC(=O)[C@@H]2C[C@@H](O)CN2C(=O)[C@@H](c2cc(N3CCC(CN4CCC(O[C@H]5C[C@@H](N6CCC(C(C)n7cc(-c8cc(-c9ccccc9O)nnc8N)cn7)CC6)C5)CC4)CC3)no2)C(C)C)cc1 (stereo partly drawn) [compound 665, (2S,4R)-1-((2R)-2-(3-(4-((4-((1s,3s)-3-(4-(1-(4-(3-amino-6-(2-hydroxyphenyl)pyridazin-4-yl)-1H-pyrazol-1-yl)ethyl)piperidin-1-yl)cyclobutoxy)piperidin-1-yl)methyl)piperidin-1-yl)isoxazol-5-yl)-3-methylbutanoyl)-4-hydroxy-N-((S)-1-(4-(4-methylthiazol-5-yl)phenyl)ethyl)pyrrolidine-2-carboxamide]	< 2.5	> 75
Cc1ncsc1-c1c(F)cc([C@H](C)NC(=O)[C@@H]2C[C@@H](O)CN2C(=O)[C@@H](c2cc(N3CCC(CN4CCC(O[C@H]5C[C@H](Oc6cc(N7C8CCC7CN(c7cc(-c9ccccc9O)nnc7N)C8)ccn6)C5)CC4)CC3)no2)C(C)C)cc1F [compound 666, (2S,4R)-1-((2R)-2-(3-(4-((4-((1r,3r)-3-((4-(3-(3-amino-6-(2-hydroxyphenyl)pyridazin-4-yl)-3,8-diazabicyclo[3.2.1]octan-8-yl)pyridin-2-yl)oxy)cyclobutoxy)piperidin-1-yl)methyl)piperidin-1-yl)isoxazol-5-y1)-3-methylbutanoyl)-N-((S)-1-(3,5-difluoro-4-(4-methylthiazol-5-yl)phenyl)ethyl)-4-hydroxypyrrolidine-2-carboxamide]	< 2.5	> 75
COC[C@@H](NC(=O)[C@@H]1C[C@@H](O)CN1C(=O)[C@@H](c1cc(N2CCC(CN3CCC(O[C@H]4C[C@H](Oc5cc(N6C7CCC6CN(c6cc(-c8ccccc8O)nnc6N)C7)ccn5)C4)CC3)CC2)no1)C(C)C)c1ccc(-c2scnc2C)cc1 [compound 667, (2S,4R)-1-((2R)-2-(3-(4-((4-((1r,3r)-3-((4-(3-(3-amino-6-(2-hydroxyphenyl)pyridazin-4-yl)-3,8-diazabicyclo[3.2.1]octan-8-yl)pyridin-2-yl)oxy)cyclobutoxy)piperidin-1-yl)methyl)piperidin-1-yl)isoxazol-5-yl)-3-methylbutanoyl)-4-hydroxy-N-((S)-2-methoxy-1-(4-(4-methylthiazol-5-yl)phenyl)ethyl)pyrrolidine-2-carboxamide]	10 to 30	> 75
COC[C@H](NC(=O)[C@@H]1C[C@@H](O)CN1C(=O)[C@@H](c1cc(N2CCC(CN3CCC(O[C@H]4C[C@H](Oc5cc(N6C7CCC6CN(c6cc(-c8ccccc8O)nnc6N)C7)ccn5)C4)CC3)CC2)no1)C(C)C)c1ccc(-c2scnc2C)cc1 [compound 668, (2S,4R)-1-((2R)-2-(3-(4-((4-((1r,3r)-3-((4-(3-(3-amino-6-(2-hydroxyphenyl)pyridazin-4-yl)-3,8-diazabicyclo[3.2.1]octan-8-yl)pyridin-2-yl)oxy)cyclobutoxy)piperidin-1-yl)methyl)piperidin-1-yl)isoxazol-5-yl)-3-methylbutanoyl)-4-hydroxy-N-((R)-2-methoxy-1-(4-(4-methylthiazol-5-yl)phenyl)ethyl)pyrrolidine-2-carboxamide]	< 2.5	> 75
COCC[C@@H](NC(=O)[C@@H]1C[C@@H](O)CN1C(=O)[C@@H](c1cc(N2CCC(CN3CCC(O[C@H]4C[C@H](Oc5cc(N6C7CCC6CN(c6cc(-c8ccccc8O)nnc6N)C7)ccn5)C4)CC3)CC2)no1)C(C)C)c1ccc(-c2scnc2C)cc1 [compound 669, (2S,4R)-1-((2R)-2-(3-(4-((4-((1r,3r)-3-((4-(3-(3-amino-6-(2-hydroxyphenyl)pyridazin-4-yl)-3,8-diazabicyclo[3.2.1]octan-8-yl)pyridin-2-yl)oxy)cyclobutoxy)piperidin-1-yl)methyl)piperidin-1-yl)isoxazol-5-yl)-3-methylbutanoyl)-4-hydroxy-N-((R)-3-methoxy-1-(4-(4-methylthiazol-5-yl)phenyl)propyl)pyrrolidine-2-carboxamide]	10 to 30	50 to 75
COCC[C@H](NC(=O)[C@@H]1C[C@@H](O)CN1C(=O)[C@@H](c1cc(N2CCC(CN3CCC(O[C@H]4C[C@H](Oc5cc(N6C7CCC6CN(c6cc(-c8ccccc8O)nnc6N)C7)ccn5)C4)CC3)CC2)no1)C(C)C)c1ccc(-c2scnc2C)cc1 [compound 670, (2S,4R)-1-((2R)-2-(3-(4-((4-((1r,3r)-3-((4-(3-(3-amino-6-(2-hydroxyphenyl)pyridazin-4-yl)-3,8-diazabicyclo[3.2.1]octan-8-yl)pyridin-2-yl)oxy)cyclobutoxy)piperidin-1-yl)methyl)piperidin-1-yl)isoxazol-5-yl)-3-methylbutanoyl)-4-hydroxy-N-((S)-3-methoxy-1-(4-(4-methylthiazol-5-yl)phenyl)propyl)pyrrolidine-2-carboxamide]	< 2.5	> 75
Cc1ncsc1-c1ccc([C@H](CC#N)NC(=O)[C@@H]2C[C@@H](O)CN2C(=O)[C@@H](c2cc(N3CCC(CN4CCC(O[C@H]5C[C@H](Oc6cc(N7C8CCC7CN(c7cc(-c9ccccc9O)nnc7N)C8)ccn6)C5)CC4)CC3)no2)C(C)C)cc1 [compound 671, (2S,4R)-1-((2R)-2-(3-(4-((4-((1r,3r)-3-((4-(3-(3-amino-6-(2-hydroxyphenyl)pyridazin-4-yl)-3,8-diazabicyclo[3.2.1]octan-8-yl)pyridin-2-yl)oxy)cyclobutoxy)piperidin-1-yl)methyl)piperidin-1-yl)isoxazol-5-yl)-3-methylbutanoyl)-N-((S)-2-cyano-1-(4-(4-methylthiazol-5-yl)phenyl)ethyl)-4-hydroxypyrrolidine-2-carboxamide]	< 2.5	> 75
